This is an account of results in patent US20040157799A1, “Pharmaceutical uses of bisphosphonates” (priority 2004, published 2004).

Series [1] relates to prostate cancer patients with a history of metastatic bone disease. Briefly: double-blind, placebo-controlled clinical study of zoledronic acid: skeletal-related events. The class given is in vivo, human. The settings on record: for patients with at least one skeletal-related event: i.v. every 3 weeks, placebo 44.2% (N=208); for patients with pathologic fractures: placebo 22.1%; for median time to the first skeletal-related event: placebo 320 days. The source says: Skeletal-related events (SREs) are defined as pathologic bone fracture events, spinal cord compression events, surgery to bone, radiation therapy to bone (including the use of radioisotopes) and a change of antineoplastic therapy to treat bone pain. Thus, SREs are the primary end-points in this study. The key efficacy endpoints are the proportion of patients having at least one SRE and the time to first SRE.
Secondary objectives are to assess the effect of zoledronic acid therapy on pain scores, analgesic use, performance status, Quality of Life scores, time to termination of active study participation, and to assess the safety and tolerability of zoledronate. Changes in bone resorption and formation markers are also evaluated. Bone mineral density measurements are evaluated in patients at selected clinical centers. In addition, time to progression of disease in bone and time to overall progression of disease are evaluated.
This study is an international, multicenter, randomized, double-blind, placebo-controlled, parallel study. […] The rising serum PSA level is documented by three consecutively rising serum PSA measurements (i.e., the third PSA level is to be>the second PSA level which is >the first PSA level which is >the nadir serum PSA concentration achieved during first-line hormonal therapy for metastatic prostate cancer), each separated from the other by at least two weeks. The rising serum PSA level represents an “early” event in the development of progressive metastatic disease.
Patients are randomized in a double-blind fashion to receive either zoledronate 4 mg intravenously, or zoledronate 8 mg intravenously, or a placebo intravenous infusion every three weeks in addition to their antineoplastic therapy. The randomized treatment assignment ratio is to be 1:1:1. In addition, all patients are to receive 500 mg of calcium orally and a multivitamin tablet (containing 400-500 I.U. of vitamin D) daily throughout the study.
The occurrence of skeletal-related events (SRE's) is collected throughout the trial for each patient in order to determine the proportion of patients experiencing at least one SRE, the time to the first SRE, and the skeletal morbidity rate (see section 4). Time to progression of disease in bone is assessed centrally (central radiologist) by review of serial bone radiographic studies. Time to overall progression of disease is determined by the patient's treating physician: by evaluating the central assessments (central radiologist) of serial bone radiographic studies; by evaluating the central assessments (central radiologist) of appropriate serial radiographic studies of non-skeletal tumor sites, if present; by evaluating serial serum PSA levels; and by evaluating serial patient weight measurements. Quality of Life, performance status, health care utilization and productivity loss data, and pain, and analgesic use scores are determined serially throughout the study. This information is also collected for those patients who discontinue active therapy within 24 months from the date of randomization into the study. Information about adverse events which occur during the patient's clinical course is collected throughout the study.
The study is made up of two phases, phase 1, the Efficacy and Safety Phase, and phase 2, the Extension Phase. The primary efficacy analysis is performed at the completion of phase 1, the Efficacy and Safety Phase, which consists of 60 weeks (20 cycles) of study treatment. Phase 2 consists of an additional 36 weeks (12 cycles) of study therapy. The primary purpose of phase 2 is to obtain long-term zoledronate treatment safety and survival data, however efficacy data will continue to be collected. […] No interim analyses are planned. […]

For series [2], the system named is prostate cancer cell lines. The note with it: in vitro treatment (Brown et al.; Lee et al.); cited from earlier work.
The test system of series [3] is subcutaneous prostate cancer cell line tumours. The settings on record: subcutaneous prostate cancer cell line tumours (Corey et al.); cited from earlier work.

The structures appear in SMILES notation.

Take `O=P(O)(O)C(O)(Cn1ccnc1)P(=O)(O)O` [zoledronic acid, 2-(imidazol-1yl)-1-hydroxyethane-1,1-diphosphonic acid]: in series [1] (4 mg 15-minute infusions every 3 weeks, metastatic prostate cancer refractory to hormonal therapy), the “effect on skeletal-related events” value is on record as “significantly reduce skeletal-related events”. For the same compound, the tolerability entry in series [1] (4 mg given as a 15-minute infusion) was “well-tolerated”. Also, the “efficacy in the treatment of bone metastases vs. placebo” value in series [1] (prostate cancer patients, double blind, placebo-controlled) was “statistically significant efficacy benefit over placebo”. The “patients with at least one skeletal-related event” value stood at 33.2% in series [1] (zoledronic acid 4 mg group (N=214), p=0.021 vs. placebo) and 38.5% in series [1] (zoledronic acid 8/4 mg group (N=221), p=0.222 vs. placebo). For the same compound, the “patients with pathologic fractures” value worked out at 13.1% in series [1] (zoledronic acid 4 mg group, p=0.015 vs. placebo) and 14.9% in series [1] (zoledronic acid 8/4 mg group, p=0.054 vs. placebo). In addition, the “median time to the first skeletal-related event” value in series [1] (zoledronic acid 4 mg group, p=0.011 vs. placebo) is given as “not reached”; in series [1] (zoledronic acid 8/4 mg group, p=0.491 vs. placebo), 363 days. In addition, the “growth of prostate cancer cell lines” value in series [2] is recorded as “significantly reduced the growth of the cell lines”. Besides, the tumour volume entry in series [3] is on record as “no significant decrease in tumour volume”.
